According to US8609694B2, “Use of pyridin-2-yl-methylamine derivatives for the production of a medicament for the treatment of chronic pain symptoms of neuropathological or psychogenic origin” (Pierre Fabre Medicament, priority 2003, dated 2013):

Tests used:
[1] = test system: chronic hypersensitivity after spinal cord lesion (central neuropathy); test: central neuropathy test in the rat (spinal cord lesion, vocalization threshold to von Frey hairs); assay type: in vivo; conditions: fumarate of (Ia) 0.63 mg/rat/day
Experimental: The central neuropathy test used is conducted in the rat according to a method analogous to that described by Hao and Xu in Pain 1996, 66, 279-286. The product to be tested is delivered at a constant rate by means of an osmotic pump (Alzet, model 2ML2) for 14 days. The pumps are implanted 28 days after spinal cord lesion and then explanted at the treatment's end. In this model, it was established that at 28 days post-lesion the animal is in a phase of chronic hypersensitivity which then lasts for several months. In this experiment, the hypersensitivity of the lesioned animals treated with compound (Ia) or with saline solution was measured. The pain threshold was objectified by the animal's persistent vocalization in response to a stimulation of increasing intensity in the sensitive region by means of von Frey hairs. […] The fumarate of compound (Ia) is administered at 0.63 mg/rat/day. The pumps implanted in the group of lesioned control animals release a 0.9% NaCl solution (saline)/rat/day.
The stimulation sensitivity tests by means of von Frey hairs are conducted 3 days after implantation of the osmotic pump and continue regularly for 28 days. The doses refer to the weight of non-salified compound.
The effects obtained with compound (Ia) in comparison with those of the lesioned control animals that received saline solution are represented in FIG. 3 in the appendix.

[2] = test system: hypersensitivity (allodynia) after unilateral ligature of the infraorbital nerve (peripheral neuropathy); test: peripheral neuropathy test in the rat (unilateral ligature of the infraorbital nerve, von Frey hair response score 0-4); assay type: in vivo; conditions: for amplitude of decrease of perceived pain intensity compared with baclofen: after nerve lesion of peripheral origin; for analgesic effect six days after the treatment's end (day 21): day 21, 6 days after pump explantation, same doses; for amplitude of analgesia 6 days after the treatment's end compared with amplitude at the treatment's end (day 15): day 21 versus day 15; for reduction of hypersensitivity (allodynia) to stimulation during treatment, versus saline: osmotic pump 14 days implanted 24 hours before lesion, (Ia) 0.63, (Ib) 0.16, morphine 5, baclofen 1.06 mg/rat/day, days 4-15
Experimental: The peripheral neuropathy test used was conducted in the rat according to a method analogous to that described by Vos in J. Neurosci. 1994, 14, 2708-2723. The product to be tested is delivered at a constant rate (0.12 ml/day) by means of an osmotic pump (Alzet, model 2ML2) for 14 days. The pumps are implanted 24 hours before lesion (unilateral ligature of the infraorbital nerve) and then explanted at the treatment's end. The pumps are implanted subcutaneously via a transverse incision made in the dorsal skin of the rat. Evaluation of the intensity of perceived pain is objectified from a series of behavioral signs observed in response to mechanical stimulation of the region lesioned by means of von Frey hairs. Stimulations are applied in order of increasing intensity. Intensity of perceived pain is evaluated from the following criteria: 0, no response by the animal; 1, detection (i.e., the rat turns its head towards the object used for stimulation); 2, withdrawal (i.e., the rat turns away or makes a withdrawal movement with its head to avoid the object used for stimulation); 3, flight or attack (i.e., the rat avoids the object by moving its body or deliberately attacks the object used for stimulation); 4, face rubbing (i.e., the rat rubs the area of stimulation three times in succession). The response level by the non-lesioned animals was 0 or 1.
The fumarate of compound (Ia) is administered at 0.63 mg/rat/day; the glycolate of compound (Ib) at 0.16 mg/rat/day; morphine hydrochloride at 5 mg/rat/day, and baclofen at 1.06 mg/rat/day. All the compounds are administered in solution in distilled water. The pumps implanted in the control animals release a 0.9% NaCl solution (saline)/rat/day; the doses refer to the weight of non-salified compound.
The effects obtained with compounds (Ia), (Ib), and the products chosen as references are represented in FIGS. 4 to 8 in the appendix. FIGS. 4 to 7 represent the analgesic effects of the various products evaluated at days 4, 6, 8, 11, and 13 of treatment and 1 day following explantation of the pump (day 15). FIG. 8 represents the analgesic effects of the various products measured at day 21, which is 6 days following the treatment's end.
The individual scores of each animal represent the average (±standard error) obtained after application of the von Frey hairs. The comparison of the results between the various groups as well as the progress of the values obtained over time are performed using an analysis of variance test (ANOVA), followed by a Dunnett's multiple comparison test.

[3] = test system: hypersensitivity (allodynia) after unilateral ligature of the infraorbital nerve (peripheral neuropathy); conditions: rat infraorbital nerve ligature model; cited from earlier work

Compound	analgesia after treatment is interrupted (curative phase) ([1]; after day 15, 14 days following pump explantation)	symptomatic analgesia (vocalization threshold to von Frey stimulation) during treatment, versus saline ([1]; osmotic pump 14 days implanted 28 days after spinal cord lesion)	amplitude of decrease of perceived pain intensity compared with baclofen [2]	analgesic effect six days after the treatment's end (day 21) [2]	amplitude of analgesia 6 days after the treatment's end compared with amplitude at the treatment's end (day 15) [2]	reduction of hypersensitivity (allodynia) to stimulation during treatment, versus saline [2]	activity in the peripheral neuropathy model as established previously [3]
Cc1ccc(CNCC2(F)CCN(C(=O)c3ccc(F)c(Cl)c3)CC2)nc1 [Compound (Ia)]	analgesia persists and is maintained at the same level as that attained at the treatment's end	statistically significant as of the tenth day of treatment	at least equivalent	continued to show a significant analgesic effect	not statistically different	significantly after day 11	–
CNc1nc(CNCC2(F)CCN(C(=O)c3ccc(F)c(Cl)c3)CC2)ccc1C [Compound (Ib)]	–	–	at least equivalent	continued to show a significant analgesic effect	not statistically different	significantly only after day 13	–
NCC(CC(=O)O)c1ccc(Cl)cc1 (stereo not drawn) [baclofen, reference compound]	–	–	–	disappeared completely	–	significant analgesic effect after day 11	agent with the highest activity
CN1CC[C@]23c4c5ccc(O)c4O[C@H]2[C@@H](O)C=C[C@H]3[C@H]1C5 [morphine, reference compound]	–	–	–	disappeared completely	–	inactive	–
